In publication PMC5608556, “Photo-affinity labelling and biochemical analyses identify the target of trypanocidal simplified natural product analogues” (PLoS Neglected Tropical Diseases, 2017):

What was measured:
HeLa = test: Toxicity (EC50) in HeLa cells; type: cell-based; conditions: Homo sapiens, footnote b, read-out: EC50 values Mammal HeLa
From the text: Fig 1 Labelling and detection of B-THP-T target(s). (A) Structures of chamuvarinin and simplified analogues thereof as probes used in this study and their respective toxicity in selected cell lines. Bi-functional compound 3 contains a diazirine (blue) to cross-link the compound to its target and an alkyne handle (red) to which an azide-containing reporter probe can be added. Mono-functional compound 2 contains the diazirine to cross-link to its target but lacks the alkyne handle and cannot be appended with an azide reporter probe. Lead B-THP-T, compound 1, lacks both diazirine and alkyne. The additional functional groups on compounds 2 and 3 are minor alterations, which have little effect on inhibitor potency. (B) Overview of the in vivo pulse-chase photo-affinity labelling procedure. B-THP-T were incubated with live PF T. brucei cells and trafficked to their targets. Following UV-irradiation, only compounds containing a diazirine (i.e. compounds 2 and 3) could cross-link with target proteins. The subsequent “click reaction” appended the conjugated B-THP-T with a reporter probe as long as an alkyne handle was present (i.e. on compound 3). Refer to the experimental section for details. (C) Detection of Cy5.5-tagged proteins following photo-affinity labelling. Proteins were separated by SDS-PAGE and conjugated Cy5.5 was detected at 700 nm. […]

[1] = target: T1, FoF1-ATP synthase F1 α-subunit (GFP-PTP tagged) (Trypanosoma brucei brucei, UniProt Q9GS23); test: In vivo photo-affinity labelling of GFP-PTP-tagged F1 α-subunit, Cy5.5 detection; type: binding; conditions: 50 μM, in vivo pulse-chase, UV 365 nm
T1 construct: expressed in transfected cells; host or cells: procyclic-form T. brucei strain 29-13, stably transfected with MfeI-linearised pC-F1α-GFP-PTP (recombination into the endogenous gene)
T1 sequence (Q9GS23 160-584): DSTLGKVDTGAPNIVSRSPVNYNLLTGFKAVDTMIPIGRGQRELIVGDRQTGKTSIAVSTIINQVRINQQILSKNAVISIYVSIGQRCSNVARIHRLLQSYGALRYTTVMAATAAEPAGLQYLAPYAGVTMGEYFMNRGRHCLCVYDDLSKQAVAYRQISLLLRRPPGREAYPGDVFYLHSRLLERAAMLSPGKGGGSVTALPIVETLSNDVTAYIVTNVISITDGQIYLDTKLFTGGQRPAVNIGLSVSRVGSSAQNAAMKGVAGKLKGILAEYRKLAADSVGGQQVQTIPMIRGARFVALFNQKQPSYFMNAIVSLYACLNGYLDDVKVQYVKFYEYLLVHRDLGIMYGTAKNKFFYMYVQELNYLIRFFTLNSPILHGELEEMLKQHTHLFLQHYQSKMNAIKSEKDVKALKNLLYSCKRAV
Method: Fig 7 B-THP-Ts bind to C-terminal GFP-PTP tagged F1 α- and β- subunits. (A) Stably transfected PF T. brucei cells endogenously-expressing F1 α-GFP-PTP or F1 β-GFP-PTP were loaded with MitoTracker Red CMXros (red) and DAPI (blue) and imaged microscopically to determine localisation of GFP-PTP-tagged protein. […] (B) Following in vivo photo-affinity labelling with 50 μM compound 3 or compound 1 (negative control), GFP-PTP-tagged F1 α- and β-subunits were affinity purified and Cy5.5 clicked on. Proteins were separated by SDS-PAGE and a western blot was performed with mouse anti-GFP / anti-mouse-DyLight 800. […]
Pulse-chase in vivo photo-affinity labelling with bi-functional compound 3 (and lead compound 1 as negative control) was performed on cells from both cell lines expressing GFP-PTP-tagged F1 α- or β-subunits. Tagged subunits were immobilised on IgG-sepharose beads, purified, and Cy5.5 fluorescent reporter clicked on, and proteins were detected by western blotting (Fig 7B). […] In trypanosomatids (but not in other organisms) the native α-subunit is expressed as a 63 KDa protein which is then cleaved by an unknown protease to 20 KDa N-terminal and 43 KDa C-terminal domains, both of which remain associated with the FoF1-ATP synthase complex. […]

In the case of C#CCNC(=O)CCC[C@H]1CC2(C[C@@H](Cn3cc([C@@H]4CCC[C@H](CCCCOCc5ccccc5)O4)nn3)O1)N=N2 [Compound 3], the EC50 (HeLa) is reported as 21.3 ± 2 µM and the “UV-conjugation (Cy5.5 labelling at 700 nm) to F1 α-GFP-PTP” value [1] is reported as “can UV-conjugate”.
